# From ChEMBL document CHEMBL1201862, “PubChem BioAssay data set” (2004)
#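 Results reflect a 48-hour exposure of cells in 96-well plates to compound at five concentrations. Abbreviation: GI50, concentration required for 50% inhibition of growth.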 The source made the active and inactive calls. Cut-off read from the data, not from the text of the source: active = GI50 up to about 1.1 µM and inactive = higher.
# Experiments:
# Assay in all cases: NCI-60 cell line screen, 48 h
# A549 = tested on: A549
# UACC-257 = tested on: UACC-257
# U-251 = tested on: U-251
# SNB-78 = tested on: SNB-78
# NCI-H460 = tested on: NCI-H460
# HCT-116 = tested on: HCT-116
# SF-268 = tested on: SF-268
# SK-MEL-5 = tested on: SK-MEL-5
# ACHN = tested on: ACHN
# EKVX = tested on: EKVX
# SR = tested on: SR
# SW-620 = tested on: SW-620
# CAKI-1 = tested on: CAKI-1
# Malme-3M = tested on: Malme-3M
# SF-539 = tested on: SF-539
# SF-295 = tested on: SF-295
# MDA-N = tested on: MDA-N
# T47D = tested on: T47D
# MCF7 = tested on: MCF7
# NCI/ADR-RES = tested on: NCI/ADR-RES
SMILES,GI50 (A549),GI50 (UACC-257),GI50 (U-251),GI50 (SNB-78),GI50 (NCI-H460),GI50 (HCT-116),GI50 (SF-268),GI50 (SK-MEL-5),GI50 (ACHN),GI50 (EKVX),GI50 (SR),GI50 (SW-620),GI50 (CAKI-1),GI50 (Malme-3M),GI50 (SF-539),GI50 (SF-295),GI50 (MDA-N),GI50 (T47D),GI50 (MCF7),GI50 (NCI/ADR-RES)
COc1ccc(NC(=O)CC2SC(Nc3ccc(Cl)cc3C)=NC2=O)c([N+](=O)[O-])c1 (stereo not drawn),> 100 µM (inactive),> 100 µM (inactive),> 100 µM (inactive),> 100 µM (inactive),> 100 µM (inactive),> 100 µM (inactive),> 100 µM (inactive),> 100 µM (inactive),> 100 µM (inactive),> 100 µM (inactive),> 100 µM (inactive),> 100 µM (inactive),> 100 µM (inactive),> 100 µM (inactive),> 100 µM (inactive),> 100 µM (inactive),,,,
COc1ccc([C@@H]2CC(=O)NCCCNCCCCNCCCN2)cc1,> 100 µM (inactive),> 100 µM (inactive),> 100 µM (inactive),> 100 µM (inactive),> 100 µM (inactive),> 100 µM (inactive),> 100 µM (inactive),> 100 µM (inactive),> 100 µM (inactive),> 100 µM (inactive),> 100 µM (inactive),> 100 µM (inactive),> 100 µM (inactive),> 100 µM (inactive),> 100 µM (inactive),> 100 µM (inactive),,,,
O=C(Nc1ccc(Cl)cc1C(F)(F)F)C(=O)C1CCCS1(=O)=O (stereo not drawn),> 100 µM (inactive),> 100 µM (inactive),> 100 µM (inactive),> 100 µM (inactive),> 100 µM (inactive),> 100 µM (inactive),> 100 µM (inactive),> 100 µM (inactive),> 100 µM (inactive),> 100 µM (inactive),> 100 µM (inactive),> 10 µM (inactive),> 100 µM (inactive),> 100 µM (inactive),> 100 µM (inactive),> 100 µM (inactive),,,,
Clc1cc(Cl)c2n[se]nc2c1,> 100 µM (inactive),> 100 µM (inactive),> 100 µM (inactive),> 100 µM (inactive),> 100 µM (inactive),> 100 µM (inactive),> 100 µM (inactive),> 100 µM (inactive),> 100 µM (inactive),> 100 µM (inactive),> 100 µM (inactive),> 100 µM (inactive),> 100 µM (inactive),> 100 µM (inactive),> 100 µM (inactive),> 100 µM (inactive),,,,
N#C/C(=C\c1ccc2ccccc2c1)C(=O)c1ccccc1,> 100 µM (inactive),82 µM (inactive),21.9 µM (inactive),> 100 µM (inactive),> 94.6 µM (inactive),> 61.4 µM (inactive),63.5 µM (inactive),> 63 µM (inactive),> 100 µM (inactive),> 100 µM (inactive),37.8 µM (inactive),42.4 µM (inactive),> 100 µM (inactive),> 95.7 µM (inactive),> 100 µM (inactive),> 54.6 µM (inactive),44.6 µM (inactive),36 µM (inactive),> 100 µM (inactive),
C[C@@](O)(/C=C/[C@H]1CC=CC(=O)O1)[C@@H](C[C@@H](O)\C=C/C=C\C=C\CO)OP(=O)(O)O [FOSTRIECIN SODIUM],9.66 µM (inactive),4.94 µM (inactive),17.1 µM (inactive),15 µM (inactive),10.4 µM (inactive),3.26 µM (inactive),16.4 µM (inactive),4.67 µM (inactive),4.51 µM (inactive),16.5 µM (inactive),3.99 µM (inactive),9.29 µM (inactive),1.81 µM (inactive),4.74 µM (inactive),7.23 µM (inactive),3.94 µM (inactive),0.828 µM (active),48.1 µM (inactive),2.97 µM (inactive),12.8 µM (inactive)
